Measured values reported in patent US7524851B2 (Robert Bosch Gesellschaft fur Medizinische Forschung (RBMF), priority 2003, dated 2009).

Key:
Rac1 = Rac1 protein expression (Western blot, immunocytochemistry); type: cell-based, human
Procedure: Western blots: Equal amounts of extract (30 μg) were added to 8 μl of electrophoresis sample buffer (Firma Roth; Karlsruhe, Germany). After boiling, the extracts were loaded on 15% SDS-PAGE gels and electrophoretically separated. Proteins were transferred to nitrocellulose membranes, and detection was performed with the ECL Western blotting analysis system (Amersham). […]
Immunocytochemical analysis: Immunocytochemistry was performed as described in Atreya et al., supra and Finotto et al., J. Exp. Med. 193:1247-1260 (2001)). […] Cells were rinsed with PBS, and nuclei were counterstained with Hoechst33342 blue for fluorescence (Molecular Probes; Burlingame, Calif., USA). Finally, cells were washed in PBS and analyzed with an Olympus Microscope. Six to ten high-power fields were finally analyzed in all patients per condition, and selected high-power fields were further analyzed by confocal laser microscopy.

CD45RA T cells = experiment: Annexin V/propidium iodide FACS apoptosis of stimulated CD45RA T cells; type: cell-based, human; conditions: rIL-2, anti-CD3 plus anti-CD28; after 5 days
Excerpt: Isolation of primary CD4^+ T lymphocytes and lamina propria cells: Human peripheral blood mononuclear cells (PBMCs) from healthy volunteers (25-42 years of age) and patients with Crohn's disease (31-65 years of age) were isolated using Ficoll-Hypaque gradients. PBMCs were further purified using CD4 monoclonal antibodies attached to immunomagnetic beads according to the manufacturer's protocol, followed by treatment with Detachabead (Dynal; Oslo, Norway). In some cases, CD4^+ T cells were further separated by negative selection techniques using CD45RO or CD45RA monoclonal antibodies (PharMingen; Heidelberg, Germany) and immunomagnetic beads (Dynal). […]
For FACS analysis, apoptotic cells were detected by staining with annexin V and propidium iodide using the Annexin V FITC Apoptosis Detection Kit I (PharMingen) (Atreya et al., Nat. Med. 6:583-588 (2000)). […] To verify the results obtained with the annexin V/propidium iodide staining, analysis of T cells displaying DNA fragmentation was also determined by the Nicoletti technique, as described in (Nicoletti et al., J. Immunol. Methods 139:271-279 (1991)). […] Finally, cells were analyzed on a FACScan flow cytometer. […]

## Sc1ncnc2nc[nH]c12 [6-MP, 6-mercaptopurine]
Rac1
  expression of Rac1: not significantly suppressed
CD45RA T cells
  induction of annexin V-positive, propidium iodide-negative naive CD45RA T cells: significant induction

## Cn1cnc([N+](=O)[O-])c1Sc1ncnc2nc[nH]c12 [azathioprine, Azathioprine]
Rac1
  expression of Rac1: not significantly suppressed
CD45RA T cells
  induction of annexin V-positive, propidium iodide-negative naive CD45RA T cells: significant induction
